Assay results: patent US5028601A, “Cephalosporin compounds and antibacterial agents” (Meiji Saika Kaisha, Ltd., priority 1987, dated 1991)
Where two headings read alike, the source gives them in different places.

Tests used:
Assay type in all cases: cell-based
Set-up in all cases: unit not given here
[1] = test system: Pseudomonas aeruginosa E-2; assay: Minimum growth inhibitory concentration, Pseudomonas aeruginosa E-2
[2] = test system: Klebsiella pneumoniae GN-69; assay: Minimum growth inhibitory concentration, Klebsiella pneumoniae GN-69
[3] = test system: Pseudomonase cepacia M-0527; assay: Minimum growth inhibitory concentration, Pseudomonase cepacia M-0527
Escherichia coli No. 29 = assay: Minimum growth inhibitory concentration, Escherichia coli No. 29
[4] = test system: Staphylococcus aureus Smith (1); assay: Minimum growth inhibitory concentration, Staphylococcus aureus Smith (1)
[5] = test system: Citrobacter freundii GN-346; assay: Minimum growth inhibitory concentration, Citrobacter freundii GN-346
[6] = test system: Serratia marcescens No. 1; assay: Minimum growth inhibitory concentration, Serratia marcescens No. 1
[7] = test system: Staphylococcus aureus 209P JC-1; assay: Minimum growth inhibitory concentration, Staphylococcus aureus 209P JC-1
Escherichia coli No. 255 = assay: Minimum growth inhibitory concentration, Escherichia coli No. 255
Proteus rettgeri GN-624 = assay: Minimum growth inhibitory concentration, Proteus rettgeri GN-624
[8] = test system: Pseudomonas aeruginosa IAM-1007; assay: Minimum growth inhibitory concentration, Pseudomonas aeruginosa IAM-1007
Proteus vulgaris GN-76 = assay: Minimum growth inhibitory concentration, Proteus vulgaris GN-76
[9] = test system: Pseudomonas aeruginosa M-0148; assay: Minimum growth inhibitory concentration, Pseudomonas aeruginosa M-0148
[10] = test system: Enterobacter cloacae GN-471; assay: Minimum growth inhibitory concentration, Enterobacter cloacae GN-471
[11] = test system: Bacillus subtilis ATCC6633; assay: Minimum growth inhibitory concentration, Bacillus subtilis ATCC6633
[12] = Staphylococcus aureus Smith (1)
[13] = Staphylococcus aureus 209P JC-1
[14] = Pseudomonas aeruginosa IAM-1007

Nc1nc(/C(=N/OCc2cc(=O)c(O)c[nH]2)C(=O)N[C@@H]2C(=O)N3C(C(=O)[O-])=C(C[n+]4ccccc4)CS[C@H]23)cs1 [A, reference compound]
Minimum Growth Inhibitory Concentration ([1]; Pseudomonas aeruginosa E-2): 3.13
Minimum Growth Inhibitory Concentration ([2]; Klebsiella pneumoniae GN-69): 0.20
Minimum Growth Inhibitory Concentration [3]: 0.39
Minimum Growth Inhibitory Concentration (Escherichia coli No. 29): 0.20
Minimum Growth Inhibitory Concentration [4, 12]: 3.13
Minimum Growth Inhibitory Concentration ([5]; Citrobacter freundii GN-346): 25
Minimum Growth Inhibitory Concentration ([6]; Serratia marcescens No. 1): 0.20
Minimum Growth Inhibitory Concentration [7, 13]: 3.13
Minimum Growth Inhibitory Concentration (Escherichia coli No. 255): 1.56
Minimum Growth Inhibitory Concentration (Proteus rettgeri GN-624; Proteus rettgeri GN-624): 12.5
Minimum Growth Inhibitory Concentration [8, 14]: 3.13
Minimum Growth Inhibitory Concentration (Proteus vulgaris GN-76; Proteus vulgaris GN-76): 0.20
Minimum Growth Inhibitory Concentration ([9]; Pseudomonas aeruginosa M-0148): 25
Minimum Growth Inhibitory Concentration ([10]; Enterobacter cloacae GN-471): 3.13
Minimum Growth Inhibitory Concentration ([11]; Bacillus subtilis ATCC6633): 1.56

CC(C)(O/N=C(\C(=O)N[C@@H]1C(=O)N2C(C(=O)[O-])=C(C[n+]3ccccc3)CS[C@H]12)c1csc(N)n1)C(=O)O [B, Ceftazidime, reference compound]
Minimum Growth Inhibitory Concentration [1]: 1.56
Minimum Growth Inhibitory Concentration [2]: 0.10
Minimum Growth Inhibitory Concentration [3]: 0.78
Minimum Growth Inhibitory Concentration (Escherichia coli No. 29): 0.20
Minimum Growth Inhibitory Concentration [4]: 3.13
Minimum Growth Inhibitory Concentration [5]: 50
Minimum Growth Inhibitory Concentration [6]: < 0.025
Minimum Growth Inhibitory Concentration [7]: 3.13
Minimum Growth Inhibitory Concentration (Proteus rettgeri GN-624): 0.39
Minimum Growth Inhibitory Concentration [8]: 1.56
Minimum Growth Inhibitory Concentration (Proteus vulgaris GN-76): 0.05
Minimum Growth Inhibitory Concentration [9]: 3.13
Minimum Growth Inhibitory Concentration [10]: 3.13
Minimum Growth Inhibitory Concentration [11]: 6.25

C[n+]1ccc(SCC2=C(C(=O)[O-])N3C(=O)[C@@H](NC(=O)/C(=N\OCc4cc(=O)c(O)cn4O)c4csc(N)n4)[C@H]3SC2)cc1 [Example 1, (6R,7R)-7-[(Z)-2-(2-Aminothiazole-4-yl)-2-(1,5-dihydroxy-4-pyridone-2-yl)methoxyiminoacetamido]-3-(1-methylpyridinium-4-yl)thiomethyl-ceph-3em-4-carboxylate]
Minimum Growth Inhibitory Concentration ([1]; Pseudomonas aeruginosa E-2): 0.05
Minimum Growth Inhibitory Concentration ([2]; Klebsiella pneumoniae GN-69): < 0.025
Minimum Growth Inhibitory Concentration [3]: < 0.025
Minimum Growth Inhibitory Concentration (Escherichia coli No. 29): 0.05
Minimum Growth Inhibitory Concentration [4, 12]: 3.13
Minimum Growth Inhibitory Concentration ([5]; Citrobacter freundii GN-346): 12.5
Minimum Growth Inhibitory Concentration ([6]; Serratia marcescens No. 1): 0.05
Minimum Growth Inhibitory Concentration [7, 13]: 3.13
Minimum Growth Inhibitory Concentration (Escherichia coli No. 255): 0.10
Minimum Growth Inhibitory Concentration (Proteus rettgeri GN-624; Proteus rettgeri GN-624): 0.10
Minimum Growth Inhibitory Concentration [8, 14]: 0.10
Minimum Growth Inhibitory Concentration (Proteus vulgaris GN-76; Proteus vulgaris GN-76): 0.05
Minimum Growth Inhibitory Concentration ([9]; Pseudomonas aeruginosa M-0148): 0.20
Minimum Growth Inhibitory Concentration ([10]; Enterobacter cloacae GN-471): 1.56
Minimum Growth Inhibitory Concentration ([11]; Bacillus subtilis ATCC6633): 12.5

Nc1nc(/C(=N/OCc2cc(=O)c(O)cn2O)C(=O)N[C@@H]2C(=O)N3C(C(=O)[O-])=C(CSc4cc[n+](CCO)cc4)CS[C@H]23)cs1 [Example 3, (6R,7R)-7-[(Z)-2-(2 Aminothiazole-4-yl)-2-(1,5-dihydroxy-4-pyridone-2-yl)methoxyiminoacetamido]-3-[1-(2-hydroxyethyl)pyridinium-4-yl]thiomethyl-ceph-3-em-4-carboxylate]
Minimum Growth Inhibitory Concentration ([1]; Pseudomonas aeruginosa E-2): 0.05
Minimum Growth Inhibitory Concentration ([2]; Klebsiella pneumoniae GN-69): 0.05
Minimum Growth Inhibitory Concentration [3]: < 0.025
Minimum Growth Inhibitory Concentration (Escherichia coli No. 29): 0.05
Minimum Growth Inhibitory Concentration [4, 12]: 6.25
Minimum Growth Inhibitory Concentration ([5]; Citrobacter freundii GN-346): 6.25
Minimum Growth Inhibitory Concentration ([6]; Serratia marcescens No. 1): 0.10
Minimum Growth Inhibitory Concentration [7, 13]: 3.13
Minimum Growth Inhibitory Concentration (Escherichia coli No. 255): 0.20
Minimum Growth Inhibitory Concentration (Proteus rettgeri GN-624; Proteus rettgeri GN-624): 0.10
Minimum Growth Inhibitory Concentration [8, 14]: 0.10
Minimum Growth Inhibitory Concentration (Proteus vulgaris GN-76; Proteus vulgaris GN-76): 0.05
Minimum Growth Inhibitory Concentration ([9]; Pseudomonas aeruginosa M-0148): 0.20
Minimum Growth Inhibitory Concentration ([10]; Enterobacter cloacae GN-471): 1.56
Minimum Growth Inhibitory Concentration ([11]; Bacillus subtilis ATCC6633): 12.5

C[n+]1ccc(SCC2=C(C(=O)[O-])N3C(=O)[C@@H](NC(=O)/C(=N\OCc4cc(=O)c(O)cn4O)c4csc(N)n4)[C@H]3SC2)c2c1CCC2 [Example 4]
Minimum Growth Inhibitory Concentration ([1]; Pseudomonas aeruginosa E-2): 0.10
Minimum Growth Inhibitory Concentration ([2]; Klebsiella pneumoniae GN-69): 0.10
Minimum Growth Inhibitory Concentration [3]: < 0.025
Minimum Growth Inhibitory Concentration (Escherichia coli No. 29): < 0.025
Minimum Growth Inhibitory Concentration [4, 12]: 6.25
Minimum Growth Inhibitory Concentration ([5]; Citrobacter freundii GN-346): 1.56
Minimum Growth Inhibitory Concentration ([6]; Serratia marcescens No. 1): 0.10
Minimum Growth Inhibitory Concentration [7, 13]: 3.13
Minimum Growth Inhibitory Concentration (Escherichia coli No. 255): 0.20
Minimum Growth Inhibitory Concentration (Proteus rettgeri GN-624; Proteus rettgeri GN-624): 0.20
Minimum Growth Inhibitory Concentration [8, 14]: 0.10
Minimum Growth Inhibitory Concentration (Proteus vulgaris GN-76; Proteus vulgaris GN-76): < 0.025
Minimum Growth Inhibitory Concentration ([9]; Pseudomonas aeruginosa M-0148): 0.10
Minimum Growth Inhibitory Concentration ([10]; Enterobacter cloacae GN-471): 0.78
Minimum Growth Inhibitory Concentration ([11]; Bacillus subtilis ATCC6633): 12.5

Cn1c(SCC2=C(C(=O)O)N3C(=O)[C@@H](NC(=O)/C(=N\OCc4cc(=O)c(O)cn4O)c4csc(N)n4)[C@H]3SC2)nnc(O)c1=O [Example 9, (6R,7R)-7-[(Z)-2-(2-Aminothiazole-4-yl)-2-(1,5-dihydroxy-4-pyridone-2-yl)methoxyiminoacetamido]-3-(4,5-dihydro-4-methyl 5-oxo-6-hydroxy-1,2,4-triazine-3-yl)thiomethyl-ceph-3-em-4-carboxylic acid]
Minimum Growth Inhibitory Concentration ([1]; Pseudomonas aeruginosa E-2): 0.05
Minimum Growth Inhibitory Concentration ([2]; Klebsiella pneumoniae GN-69): < 0.025
Minimum Growth Inhibitory Concentration [3]: < 0.025
Minimum Growth Inhibitory Concentration (Escherichia coli No. 29): < 0.025
Minimum Growth Inhibitory Concentration [4, 12]: 12.5
Minimum Growth Inhibitory Concentration ([5]; Citrobacter freundii GN-346): 3.13
Minimum Growth Inhibitory Concentration ([6]; Serratia marcescens No. 1): 0.05
Minimum Growth Inhibitory Concentration [7, 13]: 6.25
Minimum Growth Inhibitory Concentration (Escherichia coli No. 255): 0.20
Minimum Growth Inhibitory Concentration (Proteus rettgeri GN-624; Proteus rettgeri GN-624): 0.20
Minimum Growth Inhibitory Concentration [8, 14]: 0.39
Minimum Growth Inhibitory Concentration (Proteus vulgaris GN-76; Proteus vulgaris GN-76): < 0.025
Minimum Growth Inhibitory Concentration ([9]; Pseudomonas aeruginosa M-0148): 0.39
Minimum Growth Inhibitory Concentration ([10]; Enterobacter cloacae GN-471): 3.13
Minimum Growth Inhibitory Concentration ([11]; Bacillus subtilis ATCC6633): 12.5

Nc1nc(/C(=N/OCc2cc(=O)c(O)cn2O)C(=O)N[C@@H]2C(=O)N3C(C(=O)[O-])=C(C[n+]4ccccc4)CS[C@H]23)cs1 [Example 14, (6R,7R)-7-[(Z)-2-(2-Aminothiazole-4-yl)-2-(1,5-dihydroxy-4-pyridone-2-yl)methoxyiminoacetamido]-3-pyridiniummethyl-ceph-3-em-4-carboxylate]
Minimum Growth Inhibitory Concentration ([1]; Pseudomonas aeruginosa E-2): 0.10
Minimum Growth Inhibitory Concentration ([2]; Klebsiella pneumoniae GN-69): 0.10
Minimum Growth Inhibitory Concentration [3]: < 0.025
Minimum Growth Inhibitory Concentration (Escherichia coli No. 29): 0.10
Minimum Growth Inhibitory Concentration [4, 12]: 6.25
Minimum Growth Inhibitory Concentration ([5]; Citrobacter freundii GN-346): 6.25
Minimum Growth Inhibitory Concentration ([6]; Serratia marcescens No. 1): 0.10
Minimum Growth Inhibitory Concentration [7, 13]: 6.25
Minimum Growth Inhibitory Concentration (Escherichia coli No. 255): 0.78
Minimum Growth Inhibitory Concentration (Proteus rettgeri GN-624; Proteus rettgeri GN-624): 3.13
Minimum Growth Inhibitory Concentration [8, 14]: 0.39
Minimum Growth Inhibitory Concentration (Proteus vulgaris GN-76; Proteus vulgaris GN-76): 0.20
Minimum Growth Inhibitory Concentration ([9]; Pseudomonas aeruginosa M-0148): 0.78
Minimum Growth Inhibitory Concentration ([10]; Enterobacter cloacae GN-471): 3.13
Minimum Growth Inhibitory Concentration ([11]; Bacillus subtilis ATCC6633): 12.5
